Laboratory results: US20070202120A1, “Yellow Fever Mosquito Deoxyribonucleoside Kinases And Its Use” (priority 2003, published 2007)

Tests used:
[1] = tested on: deoxyribonucleoside kinases from Aedes aegypti (PZG318); test: Nucleoside kinase activity (DE-81 filter paper assay, tritium labelled substrates) in extracts of KY895 cells transformed with PZG318; type: biochemical; settings: for Phosphorylation / activation by the mosquito deoxyribonucleoside kinase (in words): extract of KY895 transformed with PZG318; for Deoxyribonucleoside kinase specific activity in extract: substrate at fixed concentration of 100 μM
Description: (§1) This example describes how E. coli KY895 were transformed with the plasmid obtained according to Example 1, in order to express mosquito dNK.
(§2) KY895 cells were transformed by the expression plasmid of Example 1 using standard techniques, e.g. as described by e.g. Sambrook et al. [Sambrook et al.; Molecular Cloning: A Laboratory Manual, Cold Spring Harbor Lab., Cold Spring Harbor, N.Y. 1989].
(§3) Transformed cells were grown to an OD600 nm of 0.5-0.6 in LB/Ampicillin (100 μg/ml) medium at 37° C. and protein expression was induced by addition of 100 μM IPTG. The cells were further grown for 4 h at 25° C. and subsequently harvested by centrifugation. The cell pellet was subjected to sonification in the binding buffer A (20 mM NaPO4 pH 7,3; 150 mM NaCl; 10% Glycerol; and 0.1% Triton X-100) and subjected to centrifugation at 10,000×g for 30 minutes. Cell free extract was used for enzymatic activity assays.
Nucleoside kinase activities were determined by initial velocity measurments based on four time sample by the DE-81 filter paper assay using tritium labelled substrates. The assays were performed as described by Munch-Petersen et al. [Munch-Petersen B, Knecht W, Lenz C, Søndergaard L, Piskur J: Functional expression of a multisubstrate deoxyribonucleoside kinase from Drosophila melanogaster and its C-terminal deletion mutants; J. Biol. Chem. 2000 275 6673-6679].
The protein concentration was determined according to Bradford with BSA as standard protein [Bradford M M: A rapid and sensitive method for the quantitation of microgram quantities of protein utilizing the principle of protein-dye binding; Anal. Biochem. 1976 72 248-254]. SDS-PAGE was done according to the procedure of Laemmli[Laemmil U K: Cleavage of structural proteins during the assembly of the head of bacteriophage T4; Nature 1970 227 680-685], and proteins were visualized by Coomassie staining to verify recombinant protein expression.
The natural deoxyribonucleoside and deoxyribonucleoside analogs were tested at a fixed concentration of 100 μM. The specific activity in each extract is given in mU/ml.

Extracts of KY895 Cells = test: Nucleoside kinase activity (DE-81 filter paper assay) in control extracts of KY895 cells (cells only, empty vector pGEX-2T); type: biochemical, E. coli; settings: extract of KY895 transformed with pGEX-2T (empty vector); substrate 100 μM; n.d. = not detectable
Description: as §1, §2, §3
Nucleoside kinase activities were determined by initial velocity measurments based on four time sample by the DE-81 filter paper assay using tritium labelled substrates. […]
The protein concentration was determined according to Bradford with BSA as standard protein [Bradford M M: A rapid and sensitive method for the quantitation of microgram quantities of protein utilizing the principle of protein-dye binding; Anal. Biochem. 1976 72 248-254]. […]

KY895 = test: Growth of E. coli KY895 on nucleoside analog plates, controls (cells only, empty vector pGEX-2T); type: cell-based; settings: 24 hours at 37° C.
Description: (§4) Deoxyribonucleoside kinases are of interest as suicide-genes to be used in gene-mediated therapy of cancer or viral infections. In this example the potential of the mosquito kinase of the invention to convert different nucleoside analogs are compared to that of the human Herpes simplex virus 1 thymidine kinase (HSV1-TK) in a bacterial test system.
(§5) The experiment was carried out essentially as described by Knecht et al. [Knecht W. Munch-Petersen B and Piskur J: identification of residues involved in the specificity and regulation of the highly efficient multisubstrate deoxyribonucleoside kinase from Drosophila melanogaster; J. Mol. Biol. […] 301 827-837]. Briefly, overnight cultures of transformed KY895 were diluted 200-fold in 10% glyercol and 2 μl drops of the dilutions were spotted on M9 minimal medium plates [Ausubel F, Brent R, Kingston R E, Moore D D, Seldman J G, Smitf J A & Struhl K (Eds.): Short protocols in molecular biology; 3rd edition (1995) pp. 1-2, Wiley, USA] supplemented with 0.2% glucose, 0.1% casamino acids, 100 μg/ml ampicillin and with or without nucleoside analogs. Growth was inspected visually after 24 hours of incubation at 37° C.
pGEX-2T is the empty vector and is available from Amersham-Pharmacia;

[2] = tested on: KY895 transformed with PZG318; test: Growth of transformed E. coli KY895 on nucleoside analog plates, transformed with PZG318 (mosquito dNK kinase); type: cell-based
Description: as §4, §5

[3] = tested on: KY895 transformed with pGEX-2T-HSV1-TK; test: Growth of transformed E. coli KY895 on nucleoside analog plates, transformed with pGEX-2T-HSV1-TK; type: cell-based; settings: 24 hours at 37° C.
Description: as §4, §5

Row | Structure (SMILES) | Phosphorylation / activation by the mosquito deoxyribonucleoside kinase (in words) [1] | Deoxyribonucleoside kinase specific activity in extract [1] [mU/ml] | Deoxyribonucleoside kinase specific activity in extract (Extracts of KY895 Cells) [mU/ml] | dFdC LD100 (KY895; KY895 cells only) [nM] | dFdC LD100 (KY895; KY895 transformed with pGEX-2T (empty vector)) [nM] | LD100 with mosquito dNK kinase (PZG318) lower than that of HSV1-TK ([2]; KY895 on nucleoside analog plates, PZG318 versus HSV1-TK) | dFdC LD100 ([2]; KY895 transformed with PZG318, M9 plates, growth inspected after 24 hours at 37° C.) [nM] | dFdC LD100 [3] [nM]
1 | Nc1nc2c(ncn2COCCO)c(=O)[nH]1 [ACV, acyclovir] | also activated | 0.3 |  |  |  |  |  | 
2 | Nc1nc(O)c2ncn(COC(CO)CO)c2n1 [GCV, gancyclovir] | also activated | 0.7 |  |  |  |  |  | 
3 | Cc1cn([C@H]2C[C@H](O)[C@@H](CO)O2)c(=O)[nH]c1=O [Thd, thymidine] | able to phosphorylate | 125 |  |  |  |  |  | 
4 | Nc1ncnc2c1ncn2[C@H]1C[C@H](O)[C@@H](CO)O1 [dAdo, deoxyadenosine] | able to phosphorylate | 364 |  |  |  |  |  | 
5 | Nc1ccn([C@H]2C[C@H](O)[C@@H](CO)O2)c(=O)n1 [dCyt, deoxycytidine] | able to phosphorylate | 124.5 | 0.1 |  |  |  |  | 
6 | Nc1ccn([C@@H]2O[C@H](CO)[C@@H](O)C2(F)F)c(=O)n1 [dFdC, 2′,2′-difluorodeoxycytidine] | much stronger than dCyt | 228 |  | >100 | >100 | at least 30 fold | 3.16 | >100
7 | Nc1nc2c(ncn2[C@H]2C[C@H](O)[C@@H](CO)O2)c(=O)[nH]1 [dGuo, deoxyguanosine] | able to phosphorylate | 214.7 |  |  |  |  |  | 
